In US12581252B2, “Substituted pyrrolo[3,4-b]pyridines as PI3K-α inhibitors” (Relay Therapeutics, Inc., priority 2020, dated 2026) one finds IC50 data, which are given here for 63 compounds.

Structures are written as SMILES.

The target of the assay is H1047R PIK3CA enzyme (Homo sapiens, UniProt P42336, H1047R). Kind of assay: ADP-Glo Biochemical PIK3CA Kinase Assay. For orientation: ADP-Glo first removes unused ATP, then detects ADP through luciferase.
Sequence of H1047R PIK3CA enzyme (P42336 whole entry H1047R): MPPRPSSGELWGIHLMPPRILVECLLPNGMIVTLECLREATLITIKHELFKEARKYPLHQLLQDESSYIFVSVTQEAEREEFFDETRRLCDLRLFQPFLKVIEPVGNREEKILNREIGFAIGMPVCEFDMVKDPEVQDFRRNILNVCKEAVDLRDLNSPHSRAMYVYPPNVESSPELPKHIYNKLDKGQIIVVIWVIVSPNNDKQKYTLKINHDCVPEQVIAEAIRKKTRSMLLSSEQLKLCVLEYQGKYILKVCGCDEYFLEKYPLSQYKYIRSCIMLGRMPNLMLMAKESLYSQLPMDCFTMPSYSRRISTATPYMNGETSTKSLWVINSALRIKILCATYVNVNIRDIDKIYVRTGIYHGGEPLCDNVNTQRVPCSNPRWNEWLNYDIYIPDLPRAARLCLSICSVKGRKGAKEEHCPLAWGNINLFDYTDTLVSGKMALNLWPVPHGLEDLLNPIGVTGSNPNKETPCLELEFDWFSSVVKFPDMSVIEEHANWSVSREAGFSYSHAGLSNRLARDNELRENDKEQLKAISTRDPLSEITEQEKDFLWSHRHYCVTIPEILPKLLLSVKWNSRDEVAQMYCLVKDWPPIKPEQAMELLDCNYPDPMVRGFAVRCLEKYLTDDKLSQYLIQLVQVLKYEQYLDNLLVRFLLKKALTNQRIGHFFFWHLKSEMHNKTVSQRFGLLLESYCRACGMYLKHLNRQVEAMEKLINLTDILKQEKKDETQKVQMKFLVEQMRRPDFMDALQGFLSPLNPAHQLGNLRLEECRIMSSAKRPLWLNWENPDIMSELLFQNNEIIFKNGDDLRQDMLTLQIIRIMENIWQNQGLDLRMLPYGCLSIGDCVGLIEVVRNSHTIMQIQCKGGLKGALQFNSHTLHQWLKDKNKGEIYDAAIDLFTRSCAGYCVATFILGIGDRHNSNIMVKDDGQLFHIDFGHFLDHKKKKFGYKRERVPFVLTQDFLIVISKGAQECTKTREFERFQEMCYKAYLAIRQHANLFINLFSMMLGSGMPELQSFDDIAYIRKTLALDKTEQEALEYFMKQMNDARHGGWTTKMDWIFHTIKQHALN
Sequence of H1047R PIK3CA enzyme (P27986 whole entry partner): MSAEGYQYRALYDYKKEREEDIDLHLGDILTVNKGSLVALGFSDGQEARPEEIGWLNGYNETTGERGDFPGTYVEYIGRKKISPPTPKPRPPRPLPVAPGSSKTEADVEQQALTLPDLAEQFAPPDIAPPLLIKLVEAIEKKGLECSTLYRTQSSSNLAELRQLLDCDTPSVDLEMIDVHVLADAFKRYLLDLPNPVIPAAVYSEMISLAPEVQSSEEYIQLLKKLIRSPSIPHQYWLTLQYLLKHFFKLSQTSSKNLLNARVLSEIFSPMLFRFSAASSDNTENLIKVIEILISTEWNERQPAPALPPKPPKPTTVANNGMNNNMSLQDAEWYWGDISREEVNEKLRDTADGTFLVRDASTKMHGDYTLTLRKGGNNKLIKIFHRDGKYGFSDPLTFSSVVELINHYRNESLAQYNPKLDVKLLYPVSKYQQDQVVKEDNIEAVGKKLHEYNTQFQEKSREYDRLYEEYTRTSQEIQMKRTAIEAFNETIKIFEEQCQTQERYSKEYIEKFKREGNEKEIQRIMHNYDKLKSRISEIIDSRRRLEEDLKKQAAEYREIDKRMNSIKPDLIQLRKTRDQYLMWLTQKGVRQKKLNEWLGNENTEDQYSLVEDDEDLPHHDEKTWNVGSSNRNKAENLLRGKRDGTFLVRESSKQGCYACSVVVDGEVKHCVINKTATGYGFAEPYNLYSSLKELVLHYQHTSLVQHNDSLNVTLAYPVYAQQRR
The term IC50 denotes the point on the concentration scale where inhibition reaches its midpoint. The low end stands for greater potency, the high end for weaker potency. `O=C(Nc1cc(-c2ccc3c(c2)OC(F)(F)O3)cc2c1C(c1cc(F)ccc1Cl)NC2=O)c1cc(F)cc(C(F)(F)F)c1` (stereo not drawn) [Compound I-738]: the IC50 lay in the range of 100 to 500 nM. As to `CC(C)(O)COc1cc(NC(=O)c2cc(F)cc(C(F)(F)F)c2)c2c(c1)C(=O)N[C@@H]2c1cc(F)ccc1Cl` [Compound I-739], the IC50 was in the range of 1000 to 10000 nM. For `CC(C)(O)COc1cc(NC(=O)c2cc(F)cc(C(F)(F)F)c2)c2c(c1)C(=O)N[C@H]2c1cc(F)ccc1Cl` [Compound I-740] the value was at most 100 nM; for `O=C(Nc1cc(-c2ccc3c(c2)OCO3)cc2c1C(c1cc(F)ccc1Cl)NC2=O)c1cc(F)cc(C(F)(F)F)c1` (stereo not drawn) [Compound I-741], at most 100 nM; for `CC(C)n1cc(-c2cc(NC(=O)c3cc(F)cc(C(F)(F)F)c3)c3c(c2)C(=O)N[C@@H]3c2cc(F)ccc2Cl)ccc1=O` [Compound I-742], 1000 to 10000 nM. With `CC(C)n1cc(-c2cc(NC(=O)c3cc(F)cc(C(F)(F)F)c3)c3c(c2)C(=O)N[C@H]3c2cc(F)ccc2Cl)ccc1=O` [Compound I-743] the figure was at most 100 nM. With `O=C(Nc1cc(-c2ccc(=O)n(C3CC3)c2)cc2c1[C@@H](c1cc(F)ccc1Cl)NC2=O)c1cc(F)cc(C(F)(F)F)c1` [Compound I-744] the figure was 1000 to 10000 nM; with `O=C(Nc1cc(-c2ccc(=O)n(C3CC3)c2)cc2c1[C@H](c1cc(F)ccc1Cl)NC2=O)c1cc(F)cc(C(F)(F)F)c1` [Compound I-745], at most 100 nM. The compound `O=C(Nc1cc(-c2ccc(=O)n(C3CC3)c2)nc2c1[C@@H](c1cc(F)ccc1Cl)NC2=O)c1cc(F)cc(C(F)(F)F)c1` [Compound I-746] gave an IC50 of 1000 to 10000 nM.

As for `CC1(COc2cc(NC(=O)c3cc(F)cc(C(F)(F)F)c3)c3c(c2)C(=O)NC3c2cc(F)ccc2Cl)COC1` (stereo not drawn) [Compound I-748], the IC50 was at most 100 nM.

`Cc1c(F)cccc1[C@H]1NC(=O)c2cc(Br)cc(NC(=O)c3cc(F)cc(C(F)(F)F)c3)c21` [Compound I-749]: the half-inhibitory concentration (IC50) lay within 1000 to 10000 nM. With `Cc1c(F)cccc1[C@@H]1NC(=O)c2cc(Br)cc(NC(=O)c3cc(F)cc(C(F)(F)F)c3)c21` [Compound I-750] the figure was 100 to 500 nM. For `Cc1c(F)cccc1C1NC(=O)c2cc(Br)cc(NC(=O)c3cc(F)cc(C(F)(F)F)c3)c21` (stereo not drawn) [Compound I-751] the value was 100 to 500 nM; for `O=C(Nc1cc(Br)cc2c(=O)[nH]n(-c3cc(F)ccc3Cl)c12)c1cc(F)cc(C(F)(F)F)c1` [Compound I-752], 1000 to 10000 nM. With `O=C1NC(c2cc(F)ccc2Cl)c2c(NC(=S)c3cc(F)cc(C(F)(F)F)c3)cccc21` (stereo not drawn) [Compound I-753] the figure was 500 to 1000 nM. For the compound `O=C(Nc1cc(Br)cc2c1[C@@H](c1ccc(F)cc1Cl)NC2=O)c1cc(F)cc(C(F)(F)F)c1` [Compound I-754], the 50% inhibitory concentration (IC50) lay within 1000 to 10000 nM.

In turn, `O=C(Nc1cc(Br)cc2c1[C@H](c1ccc(F)cc1Cl)NC2=O)c1cc(F)cc(C(F)(F)F)c1` [Compound I-755] yielded a half-maximal inhibitory concentration (IC50) of 100 to 500 nM. For `O=C(Nc1cc(Br)cc2c1C(c1ccc(F)cc1Cl)NC2=O)c1cc(F)cc(C(F)(F)F)c1` (stereo not drawn) [Compound I-756] the value was 100 to 500 nM; for `Cc1ccc(F)cc1[C@H]1NC(=O)c2cc(Br)cc(NC(=O)c3cc(F)cc(C(F)(F)F)c3)c21` [Compound I-757], 1000 to 10000 nM; for `Cc1ccc(F)cc1[C@@H]1NC(=O)c2cc(Br)cc(NC(=O)c3cc(F)cc(C(F)(F)F)c3)c21` [Compound I-758], at most 100 nM. For `Cc1ccc(F)cc1C1NC(=O)c2cc(Br)cc(NC(=O)c3cc(F)cc(C(F)(F)F)c3)c21` (stereo not drawn) [Compound I-759] the value was at most 100 nM; for `O=C1NC(c2cc(F)ccc2Cl)c2c(Nc3nncc4ccccc34)cc(Br)cc21` (stereo not drawn) [Compound I-760], 10000 to 100000 nM.

The compound `O=C1NC(c2cc(F)ccc2Cl)c2c(Nc3nccc4cccnc34)cc(Br)cc21` (stereo not drawn) [Compound I-761] showed an IC50 of 10000 to 100000 nM. With `O=C1NC(c2cc(F)ccc2Cl)c2c(Nc3nccc4ccccc34)cc(Br)cc21` (stereo not drawn) [Compound I-762] the figure was 1000 to 10000 nM. Take `O=C(Nc1cc(Br)cc2c1C(c1cc(Cl)ccc1Cl)NC2=O)c1cc(F)cc(C(F)(F)F)c1` (stereo not drawn) [Compound I-763]: the IC50 was at most 100 nM.

`O=C(Nc1cc(Br)cc2c1[C@@H](c1cc(Cl)ccc1Cl)NC2=O)c1cc(F)cc(C(F)(F)F)c1` [Compound I-764] returned an IC50 of 1000 to 10000 nM. For `O=C(Nc1cc(Br)cc2c1[C@H](c1cc(Cl)ccc1Cl)NC2=O)c1cc(F)cc(C(F)(F)F)c1` [Compound I-765] the value was at most 100 nM; for `O=C1NC(c2cc(F)ccc2Cl)c2c(NC(=O)N3CC(=O)N4CCCC4C3)cc(Br)cc21` (stereo not drawn) [Compound I-766], 10000 to 100000 nM; for `O=C(Nc1cccc2c1C(c1cc(F)ccc1Cl)NC2=O)c1cc(Cl)cc(F)c1F` (stereo not drawn) [Compound I-767], 100 to 500 nM. `O=C(Nc1cccc2c1C(c1cc(F)ccc1Cl)NC2=O)c1cc(F)cnc1NC1CCC1` (stereo not drawn) [Compound I-768] gave an IC50 of 1000 to 10000 nM. For `O=C1NC(c2cc(F)ccc2Cl)c2c(NC(=O)N3CCCC3c3ccccc3)cc(Br)cc21` (stereo not drawn) [Compound I-769] the value was 1000 to 10000 nM; for `O=C1NC(c2cc(F)ccc2Cl)c2c(NC(=O)N3CCCCC3c3ccccc3)cc(Br)cc21` (stereo not drawn) [Compound I-772], 1000 to 10000 nM; for `COc1cc(NC(=O)c2cc(F)cc(C(F)(F)F)c2)c2c(c1)C(=O)NC2c1cc(F)ccc1Cl` (stereo not drawn) [Compound I-773], at most 100 nM. For the compound `O=C(Nc1cc(Br)cc2c1C(c1cc(F)ccc1Cl)NC2=O)c1cc(F)cc(S(F)(F)(F)(F)F)c1` (stereo not drawn) [Compound I-774], the half-inhibitory concentration (IC50) is at most 100 nM. With `CP(C)(=O)Cc1cc(NC(=O)c2cc(F)cc(C(F)(F)F)c2)c2c(c1)C(=O)NC2c1cc(F)ccc1Cl` (stereo not drawn) [Compound I-775] the figure was at most 100 nM; with `O=C(Nc1cc(C2CC(F)(F)C2)cc2c1C(c1cc(F)ccc1Cl)NC2=O)c1cc(F)cc(C(F)(F)F)c1` (stereo not drawn) [Compound I-779], at most 100 nM; with `COc1ncc(-c2cc(NC(=O)c3cc(F)cc(C(F)(F)F)c3)c3c(c2)C(=O)NC3c2cc(F)ccc2Cl)cn1` (stereo not drawn) [Compound I-782], at most 100 nM.

`Cc1ncc(-c2cc(NC(=O)c3cc(F)cc(C(F)(F)F)c3)c3c(c2)C(=O)N[C@@H]3c2cc(F)ccc2Cl)cn1` [Compound I-783] registered a 50% inhibitory concentration (IC50) of 1000 to 10000 nM. With `Cc1ncc(-c2cc(NC(=O)c3cc(F)cc(C(F)(F)F)c3)c3c(c2)C(=O)N[C@H]3c2cc(F)ccc2Cl)cn1` [Compound I-784] the figure was at most 100 nM; with `O=C(Nc1cc(Br)cc2c1C(c1cc(Cl)cc(F)c1F)NC2=O)c1cc(F)cc(C(F)(F)F)c1` (stereo not drawn) [Compound I-785], at most 100 nM.

`O=C(Nc1cc(Br)cc2c1[C@H](c1cc(Cl)cc(F)c1F)NC2=O)c1cc(F)cc(C(F)(F)F)c1` [Compound I-786] returned a half-maximal inhibitory concentration (IC50) of at most 100 nM.

In the case of `O=C(Nc1cc(Br)cc2c1[C@@H](c1cc(Cl)cc(F)c1F)NC2=O)c1cc(F)cc(C(F)(F)F)c1` [Compound I-787], the half-maximal inhibitory concentration (IC50) was in the range of 1000 to 10000 nM. With `O=C(Nc1cc(Br)cc2c1C(c1cc(F)ccc1Cl)NC2=O)c1cc(F)ccc1OC(F)(F)F` (stereo not drawn) [Compound I-788] the figure was 1000 to 10000 nM; with `O=C(Nc1cc(Br)cc2c1[C@H](c1ccccc1C(F)F)NC2=O)c1cc(F)cc(C(F)(F)F)c1` [Compound I-789], at most 100 nM; with `O=C(Nc1cc(Br)cc2c1[C@@H](c1ccccc1C(F)F)NC2=O)c1cc(F)cc(C(F)(F)F)c1` [Compound I-790], 1000 to 10000 nM.

Consider `O=C(Nc1cc(Br)cc2c1C(c1cc(F)ccc1Cl)NC2=O)c1cc(F)ccc1Cl` (stereo not drawn) [Compound I-791], for which the 50% inhibitory concentration (IC50) fell in the range of 10000 to 100000 nM.

Compound `O=C(Nc1cc(Br)cc2c1C(c1ccccc1C(F)F)NC2=O)c1cc(F)cc(C(F)(F)F)c1` (stereo not drawn) [Compound I-792] showed an IC50 of at most 100 nM. With `O=C(Nc1cc(Br)cc2c1C(c1cc(F)ccc1Cl)NC2=O)c1cc(F)ccc1F` (stereo not drawn) [Compound I-793] the figure was 1000 to 10000 nM; with `O=C(Nc1cc(Br)cc2c1C(c1cc(F)ccc1Cl)NC2=O)c1cc(Cl)ccc1F` (stereo not drawn) [Compound I-794], 1000 to 10000 nM. For `O=C(Nc1cc(Br)cc2c1C(c1cc(F)ccc1Cl)NC2=O)c1cc(Cl)ccc1Cl` (stereo not drawn) [Compound I-795] the value was 1000 to 10000 nM; for `COc1ccc(F)cc1C(=O)Nc1cc(Br)cc2c1C(c1cc(F)ccc1Cl)NC2=O` (stereo not drawn) [Compound I-796], 1000 to 10000 nM. `O=C(Nc1cc(Br)cc2c1[C@H](c1cc(F)ccc1C(F)F)NC2=O)c1cc(F)cc(C(F)(F)F)c1` [Compound I-797] gave a half-maximal inhibitory concentration (IC50) of at most 100 nM. With `O=C(Nc1cc(Br)cc2c1[C@@H](c1cc(F)ccc1C(F)F)NC2=O)c1cc(F)cc(C(F)(F)F)c1` [Compound I-798] the figure was 1000 to 10000 nM; with `COc1ccc(Cl)cc1C(=O)Nc1cc(Br)cc2c1C(c1cc(F)ccc1Cl)NC2=O` (stereo not drawn) [Compound I-799], 1000 to 10000 nM; with `COc1cc(F)cc(C(=O)Nc2cc(Br)cc3c2C(c2cc(F)ccc2Cl)NC3=O)c1` (stereo not drawn) [Compound I-800], 500 to 1000 nM.

`O=C(Nc1cc(Br)cc2c1C(c1cc(F)ccc1Cl)NC2=O)c1cccc(C(F)(F)F)c1` (stereo not drawn) [Compound I-801] gave an IC50 of 100 to 500 nM. For `O=C1NC(c2cc(F)ccc2Cl)c2c(NC(=O)c3cc(Cl)cc4cccnc34)cc(Br)cc21` (stereo not drawn) [Compound I-802] the value was 10000 to 100000 nM; for `O=C(Nc1cc(Br)cc2c1[C@H](c1cc(F)cc(F)c1Cl)NC2=O)c1cc(F)cc(C(F)(F)F)c1` [Compound I-805], at most 100 nM; for `O=C(Nc1cc(Br)cc2c1[C@@H](c1cc(F)cc(F)c1Cl)NC2=O)c1cc(F)cc(C(F)(F)F)c1` [Compound I-806], 500 to 1000 nM. With `O=C(Nc1cc(Br)cc2c1C(c1cc(F)cc(F)c1Cl)NC2=O)c1cc(F)cc(C(F)(F)F)c1` (stereo not drawn) [Compound I-807] the figure was at most 100 nM; with `CNC(=O)c1cc(NC(=O)c2cc(F)cc(C(F)(F)F)c2)c2c(c1)c(=O)[nH]n2-c1cc(F)ccc1Cl` [Compound I-808], 1000 to 10000 nM; with `O=C(Nc1cc(Br)cc2c1C(c1cc(F)ccc1Cl)NC2=O)c1cc(F)cc(C(F)(F)F)c1Cl` (stereo not drawn) [Compound I-809], 1000 to 10000 nM. For `O=C1Cc2cccc(C3NC(=O)c4cccc(NC(=O)c5cc(F)cc(C(F)(F)F)c5)c43)c2N1` (stereo not drawn) [Compound I-810] the value was 10000 to 100000 nM.
